Earlier results, collected in patent US10124030B2, “Skincare preparations” (KARYNG, LLC, priority 2016, dated 2018).

Test system: epidermal SIRT1 protein expression
Conditions: 0.02% vs untreated with UVB; UVB 0.2 J/cm^2

Oc1ccc(C=Cc2cc(O)cc(O)c2)cc1 [Resveratrol]
modulation of epidermal SIRT1 protein expression: −22%
